Non-standard residues stand in square brackets, D forms with d. Residues, ends and D or L forms follow the SMILES beside them.
System: Herpes Simplex Virus Type-1
Test: Herpes Simplex Virus Type-1 plaque inhibition assay in Vero cells
Type: cell-based, Herpes simplex type 1 virus (HSV-1)
Details: Vero cells infected with 50 to 60 pfu HSV-1; peptide added after 2 hr virus incubation; concentration that inhibited growth of 50% of the input HSV-1
Description: Vero cells were seeded into 24-we! l tissue culture plates 24 to 48 hr prior to performing the plaque assay. Herpes simplex type 1 virus (HSV-1) was diluted to 50 to 60 plaque forming units (pfu)/0.1 ml Medium 199 and 0.1 ml was added to the cells. Control cultures received 0.1 ml Medium 199 without HSV-1. Plates were incubated for 2 hr at 37° C. in 5% carbon dioxide.
Following incubation of the cells with or without HSV-1, the medium was removed by aspiration. The peptides to be tested for antiviral activity were diluted in Dulbecco's modified Eagle's medium supplemented with 0.2% human gamma globulin, 5% fetal bovine serum, 10 units/ml penicillin and 5μg/ml streptomycin and 1 ml of the peptide solution was added to each of duplicate wells. Medium only was added to wells labelled for input virus or cell controls.
Cells were observed by microscopy at 24 and 48 hr to identify toxicity due to the peptides. Following the incubation period, medium was removed by aspiration and the cultures were fixed using methanol and stained with 0.037% Geimsa for 45 min. The stain was removed and the plates were rinsed and allowed to air dry. The concentration of peptide that inhibited growth of 50% of the input HSV-1 (IC50) was determined for each peptide by counting the number of viral plaques present in the peptide-treated wells as compared with the input virus control wells.
Using the plaque inhibition assay, a peptide was considered to have no antiviral effect in this assay if greater than 100 μg/ml of the peptide was required to inhibit growth of 50% of the input HSV-1.

Row | Structure (SMILES) | Herpes Simplex Virus Type-1 Plaque Inhibition IC50 [µg/mL]
1 | CC(=O)N[C@H](CCCNC(=N)N)C(=O)N[C@H](CCCNC(=N)N)C(=O)N[C@H](Cc1c[nH]c2ccccc12)C(=O)N[C@H](Cc1c[nH]c2ccccc12)C(=O)N[C@H](CS)C(=O)N[C@H](CCCNC(=N)N)C(=O)N[C@H](CC(N)=O)C(N)=O [Ac-Arg-Arg-Trp-Trp-Cys-Arg-Asn-NH2] | 85
2 | CC(=O)N[C@H](CCCNC(=N)N)C(=O)N[C@H](CCCNC(=N)N)C(=O)N[C@H](Cc1c[nH]c2ccccc12)C(=O)N[C@H](Cc1c[nH]c2ccccc12)C(=O)N[C@H](CS)C(=O)N[C@H](CCCNC(=N)N)C(=O)N[C@H](CCC(=O)O)C(N)=O [Ac-Arg-Arg-Trp-Trp-Cys-Arg-Glu-NH2] | > 100
3 | CC(=O)N[C@H](CCCNC(=N)N)C(=O)N[C@H](CCCNC(=N)N)C(=O)N[C@H](Cc1c[nH]c2ccccc12)C(=O)N[C@H](Cc1c[nH]c2ccccc12)C(=O)N[C@H](CS)C(=O)N[C@H](CCCNC(=N)N)C(=O)N[C@H](CC(C)C)C(N)=O [Ac-Arg-Arg-Trp-Trp-Cys-Arg-Leu-NH2] | 61
4 | CC(=O)N[C@H](CCCNC(=N)N)C(=O)N[C@H](CCCNC(=N)N)C(=O)N[C@H](Cc1c[nH]c2ccccc12)C(=O)N[C@H](Cc1c[nH]c2ccccc12)C(=O)N[C@H](CS)C(=O)N[C@H](CCCNC(=N)N)C(=O)N[C@H](Cc1ccccc1)C(N)=O [Ac-Arg-Arg-Trp-Trp-Cys-Arg-Phe-NH2] | 59
5 | CC(=O)N[C@H](CCCNC(=N)N)C(=O)N[C@H](CCCNC(=N)N)C(=O)N[C@H](Cc1c[nH]c2ccccc12)C(=O)N[C@H](Cc1c[nH]c2ccccc12)C(=O)N[C@H](CS)C(=O)N[C@H](CCCNC(=N)N)C(=O)N[C@@H](C(N)=O)C(C)C [Ac-Arg-Arg-Trp-Trp-Cys-Arg-Val-NH2] | 58
6 | CC(=O)N[C@H](CCCNC(=N)N)C(=O)N[C@H](CCCNC(=N)N)C(=O)N[C@H](Cc1c[nH]c2ccccc12)C(=O)N[C@H](Cc1c[nH]c2ccccc12)C(=O)N[C@H](CS)C(=O)N[C@H](CCCNC(=N)N)C(=O)N[C@H](CO)C(N)=O [Ac-Arg-Arg-Trp-Trp-Cys-Arg-Ser-NH2] | > 100
7 | CC(=O)N[C@H](CCCNC(=N)N)C(=O)N[C@H](CCCNC(=N)N)C(=O)N[C@H](Cc1c[nH]c2ccccc12)C(=O)N[C@H](Cc1c[nH]c2ccccc12)C(=O)N[C@H](CS)C(=O)N[C@H](CCCNC(=N)N)C(=O)N[C@H](C)C(N)=O [Ac-Arg-Arg-Trp-Trp-Cys-Arg-Ala-NH2] | 35
8 | CC(=O)N[C@H](CCCNC(=N)N)C(=O)N[C@H](CCCNC(=N)N)C(=O)N[C@H](Cc1c[nH]c2ccccc12)C(=O)N[C@H](Cc1c[nH]c2ccccc12)C(=O)N[C@H](CS)C(=O)N[C@H](CCCNC(=N)N)C(=O)N[C@H](CCCCN)C(N)=O [Ac-Arg-Arg-Trp-Trp-Cys-Arg-Lys-NH2] | 50
9 | CC(=O)N[C@H](CCCNC(=N)N)C(=O)N[C@H](CCCNC(=N)N)C(=O)N[C@H](Cc1c[nH]c2ccccc12)C(=O)N[C@H](Cc1c[nH]c2ccccc12)C(=O)N[C@H](CS)C(=O)N[C@H](CCCNC(=N)N)C(=O)N1CCC[C@@H]1C(N)=O [Ac-Arg-Arg-Trp-Trp-Cys-Arg-Pro-NH2] | > 100
10 | CC(=O)N[C@H](CCCNC(=N)N)C(=O)N[C@H](CCCNC(=N)N)C(=O)N[C@H](Cc1c[nH]c2ccccc12)C(=O)N[C@H](Cc1c[nH]c2ccccc12)C(=O)N[C@H](CS)C(=O)N[C@H](CCCNC(=N)N)C(=O)N[C@H](Cc1c[nH]c2ccccc12)C(N)=O [Ac-Arg-Arg-Trp-Trp-Cys-Arg-Trp-NH2] | 37
11 | CC(=O)N[C@H](CCCNC(=N)N)C(=O)N[C@H](CCCNC(=N)N)C(=O)N[C@H](Cc1c[nH]c2ccccc12)C(=O)N[C@H](Cc1c[nH]c2ccccc12)C(=O)N[C@H](CS)C(=O)N[C@H](CCCNC(=N)N)C(=O)N[C@H](CCC(N)=O)C(N)=O [Ac-Arg-Arg-Trp-Trp-Cys-Arg-Gln-NH2] | 37
12 | CC(=O)N[C@H](CCCNC(=N)N)C(=O)N[C@H](CCCNC(=N)N)C(=O)N[C@H](Cc1c[nH]c2ccccc12)C(=O)N[C@H](Cc1c[nH]c2ccccc12)C(=O)N[C@H](CS)C(=O)N[C@H](CCCNC(=N)N)C(=O)N[C@H](Cc1ccc(O)cc1)C(N)=O [Ac-Arg-Arg-Trp-Trp-Cys-Arg-Tyr-NH2] | > 100
13 | CC(=O)N[C@H](CCCNC(=N)N)C(=O)N[C@H](CCCNC(=N)N)C(=O)N[C@H](Cc1c[nH]c2ccccc12)C(=O)N[C@H](Cc1c[nH]c2ccccc12)C(=O)N[C@H](CS)C(=O)N[C@H](CCCNC(=N)N)C(=O)N[C@H](CC(=O)O)C(N)=O [Ac-Arg-Arg-Trp-Trp-Cys-Arg-Asp-NH2] | > 100
14 | CC(=O)N[C@H](CCCNC(=N)N)C(=O)N[C@H](CCCNC(=N)N)C(=O)N[C@H](Cc1c[nH]c2ccccc12)C(=O)N[C@H](Cc1c[nH]c2ccccc12)C(=O)N[C@H](CS)C(=O)N[C@H](CCCNC(=N)N)C(=O)N[C@H](CS)C(N)=O [Ac-Arg-Arg-Trp-Trp-Cys-Arg-Cys-NH2] (Ac-[dR][dR][dW][dW][dC][dR][dC]-NH2) | 50
15 | CC(=O)N[C@H](CCCNC(=N)N)C(=O)N[C@H](CCCNC(=N)N)C(=O)N[C@H](Cc1c[nH]c2ccccc12)C(=O)N[C@H](Cc1c[nH]c2ccccc12)C(=O)N[C@H](CS)C(=O)N[C@H](CCCNC(=N)N)C(=O)N[C@H](CCCNC(=N)N)C(N)=O [Ac-Arg-Arg-Trp-Trp-Cys-Arg-Arg-NH2] | 62
16 | CC(=O)N[C@H](CCCNC(=N)N)C(=O)N[C@H](CCCNC(=N)N)C(=O)N[C@H](Cc1c[nH]c2ccccc12)C(=O)N[C@H](Cc1c[nH]c2ccccc12)C(=O)N[C@H](CS)C(=O)N[C@H](CCCNC(=N)N)C(=O)N[C@@H](C(N)=O)[C@H](C)O [Ac-Arg-Arg-Trp-Trp-Cys-Arg-Thr-NH2] | > 100
17 | CC(=O)N[C@H](CCCNC(=N)N)C(=O)N[C@H](CCCNC(=N)N)C(=O)N[C@H](Cc1c[nH]c2ccccc12)C(=O)N[C@H](Cc1c[nH]c2ccccc12)C(=O)N[C@H](CS)C(=O)N[C@H](CCCNC(=N)N)C(=O)NCC(N)=O [Ac-Arg-Arg-Trp-Trp-Cys-Arg-Gly-NH2] | > 100
18 | CSCC[C@@H](NC(=O)[C@@H](CCCNC(=N)N)NC(=O)[C@@H](CS)NC(=O)[C@@H](Cc1c[nH]c2ccccc12)NC(=O)[C@@H](Cc1c[nH]c2ccccc12)NC(=O)[C@@H](CCCNC(=N)N)NC(=O)[C@@H](CCCNC(=N)N)NC(C)=O)C(N)=O [Ac-Arg-Arg-Trp-Trp-Cys-Arg-Met-NH2] | > 50
19 | CC[C@@H](C)[C@@H](NC(=O)[C@@H](CCCNC(=N)N)NC(=O)[C@@H](CS)NC(=O)[C@@H](Cc1c[nH]c2ccccc12)NC(=O)[C@@H](Cc1c[nH]c2ccccc12)NC(=O)[C@@H](CCCNC(=N)N)NC(=O)[C@@H](CCCNC(=N)N)NC(C)=O)C(N)=O [Ac-Arg-Arg-Trp-Trp-Cys-Arg-Ile-NH2] | > 100
20 | CC(=O)N[C@H](CCCNC(=N)N)C(=O)N[C@H](CCCNC(=N)N)C(=O)N[C@H](Cc1c[nH]c2ccccc12)C(=O)N[C@H](Cc1c[nH]c2ccccc12)C(=O)N[C@H](CS)C(=O)N[C@H](CCCNC(=N)N)C(=O)N[C@H](Cc1c[nH]cn1)C(N)=O [Ac-Arg-Arg-Trp-Trp-Cys-Arg-His-NH2] | > 100

Reference: patent publication US5441936A, “Antiviral peptides” (priority 1993, dated 1995)
